# Data reported in patent US20150119363A1, “METHODS OF TREATING BACTERIAL INFECTIONS” (Rampex Pharmaceuticals, Inc., priority 2012, published 2015).
# Key:
# KP1004 KPC-2 = assay: Dose titration biapenem potentiation assay (MPC1); format: cell-based, Klebsiella pneumoniae
# Protocol: (§1) The potency and spectrum of β-lactamase inhibitors is also determined by assessing their biapenem potentiation activity in a dose titration potentiation assay using strains expressing serine carbapemenases (such as KPC). The potentiation effect is observed as the ability of BLI compounds to inhibit growth in the presence of sub-inhibitory concentration of biapenem. […] Biapenem is present in the test medium at 1 μg/mL. Compounds tested at the highest concentration of 40 μg/mL. […] Table 5 summarizes BLI potency of biapenem potentiation (MPC1). Biapenem MIC for each strain is also shown.
# KP1008 KPC-2 = assay: Dose titration biapenem potentiation assay (MPC1); format: cell-based, Klebsiella pneumoniae
# Protocol: as §1
# EC1007 KPC-3 = assay: Dose titration biapenem potentiation assay (MPC1); format: cell-based, Escherichia coli
# Protocol: as §1
# ECL1004 NMC-A = assay: Dose titration biapenem potentiation assay (MPC1); format: cell-based, Enterobacter cloacae
# Protocol: as §1
# [1] = test system: Enterobacter cloacae ECL1058 (KPC-3, SHV-11, TEM-1); assay: Checkerboard assay, Compound 5 with biapenem; format: cell-based; settings: Enterobacter cloacae
# Text: (§2) The potentiation effect is observed by the reduction of the minimum inhibitory concentration of β-lactam antibiotics in the presence of β-lactamase inhibitors (BLIs). […] Methods for Dilution of Antimicrobial Susceptibility Tests for Bacteria That Grow Aerobically—Eighth Edition; Approved Standard. CLSI Document M07-A8, 2009). In this assay, multiple dilutions of two drugs, namely BLI and β-lactam (biapenem), are being tested, alone and in combination, at concentrations equal to, above and below their respective minimal inhibitory concentrations (MICs). BLIs are solubilized in 10% DMSO at 10 mg/mL. Stock solutions are further diluted, according to the needs of a particular assay, in Mueller Hinton Broth (MHB). Stock solution can be stored at −80° C.
# (§3) The checkerboard (CB) assay is performed in microtiter plates. Biapenem is diluted in the x axis, each column containing a single concentration of antibiotic. BLIs are diluted in the y axis, each row containing an equal concentration of BLI. The result of these manipulations is that each well of the microtiter plate contains a unique combination of concentrations of the two agents. The assay is performed in MHB with a final bacterial inoculum of 5×10^5 CFU/mL (from an early-log phase culture). Microtiter plates are incubated during 20 h at 35° C. and are read using a microtiter plate reader (Molecular Devices) at 650 nm as well as visual observation using a microtiter plate reading mirror.
# [2] = test system: Enterobacter cloacae ECL1059 (KPC-3, SHV-12, TEM-1); assay: Checkerboard assay, Compound 5 with biapenem; format: cell-based; settings: Enterobacter cloacae
# Text: as §2, §3
# [3] = test system: Escherichia coli EC1007 (KPC-3); assay: Checkerboard assay, Compound 5 with biapenem; format: cell-based; settings: Escherichia coli
# Text: as §2, §3
# [4] = test system: Klebsiella oxytoca KX1017 (KPC-2, OXA-2, SHV-30); assay: Checkerboard assay, Compound 5 with biapenem; format: cell-based; settings: Klebsiella oxytoca
# Text: as §2, §3
# [5] = test system: Klebsiella oxytoca KX1018 (KPC-2, SHV-40, OXY-1); assay: Checkerboard assay, Compound 5 with biapenem; format: cell-based; settings: Klebsiella oxytoca
# Text: as §2, §3
# [6] = test system: Klebsiella oxytoca KX1019 (KPC-2, OXA-2); assay: Checkerboard assay, Compound 5 with biapenem; format: cell-based; settings: Klebsiella oxytoca
# Text: as §2, §3
# [7] = test system: Klebsiella pneumoniae KP1004 (KPC-2); assay: Checkerboard assay, Compound 5 with biapenem; format: cell-based; settings: Klebsiella pneumoniae
# Text: as §2, §3
# [8] = test system: Klebsiella pneumoniae KP1008 (KPC-2); assay: Checkerboard assay, Compound 5 with biapenem; format: cell-based; settings: Klebsiella pneumoniae
# Text: as §2, §3
# [9] = test system: Klebsiella pneumoniae KP1082 (KPC-2, SHV-1); assay: Checkerboard assay, Compound 5 with biapenem; format: cell-based; settings: Klebsiella pneumoniae
# Text: as §2, §3
# [10] = test system: Klebsiella pneumoniae KP1083 (KPC-3, SHV-1, TEM-1); assay: Checkerboard assay, Compound 5 with biapenem; format: cell-based; settings: Klebsiella pneumoniae
# Text: as §2, §3
# [11] = test system: Klebsiella pneumoniae KP1084 (KPC-3, SHV-11, TEM-1); assay: Checkerboard assay, Compound 5 with biapenem; format: cell-based; settings: Klebsiella pneumoniae
# Text: as §2, §3
# [12] = test system: Klebsiella pneumoniae KP1087 (KPC-2, CTX-M-15, SHV-11, TEM-1); assay: Checkerboard assay, Compound 5 with biapenem; format: cell-based; settings: Klebsiella pneumoniae
# Text: as §2, §3
# [13] = test system: Klebsiella pneumoniae KP1088 (KPC-3, SHV-11, TEM-1); assay: Checkerboard assay, Compound 5 with biapenem; format: cell-based; settings: Klebsiella pneumoniae
# Text: as §2, §3
# [14] = test system: Escherichia coli (EC1061) NDM-1; assay: Biapenem MIC at various concentrations of Compound 5; format: cell-based; settings: Escherichia coli
# [15] = test system: Klebsiella pneumonia (KP1004) KPC-2; assay: as above; format: cell-based; settings: Klebsiella pneumoniae
# [16] = test system: Klebsiella pneumonia (KPM1097) NDM-1, KPC-2; assay: as above; format: cell-based; settings: Klebsiella pneumoniae
# [17] = test system: Klebsiella pneumoniae KP1004 (KPC-2); assay: Checkerboard assay, biapenem potentiation (MPC8); format: cell-based; settings: concentration to reduce biapenem MIC 8-fold
# Protocol: (§4) The potency and spectrum of β-lactamase inhibitors was determined by assessing their antibiotic potentiation activity.
# as §2, §3
# (§5) Biapenem is a carbapenem β-lactam; only selected β-lactamases confer resistance to this class of antibiotics. Among them are serine carbapemenases that belong to class A and class D. Biapenem potentiation is studied in strains expressing various carbapenemases from these classes using CB assays. […] Cyclic boronic acid derivatives were capable of reducing biapenem MICs up to 1000-fold (Table 3).
# [18] = test system: Acinetobacter baumannii AB1054 (OXA-23); assay: Checkerboard assay, biapenem potentiation (MPC8); format: cell-based; settings: concentration to reduce biapenem MIC 8-fold
# Protocol: as §4, §2, §3, §5
# [19] = test system: Acinetobacter baumannii AB1057 (OXA-58); assay: Checkerboard assay, biapenem potentiation (MPC8); format: cell-based; settings: concentration to reduce biapenem MIC 8-fold
# Protocol: as §4, §2, §3, §5
# [20] = molecular target: T1, KPC-2 (Klebsiella pneumoniae KP1004 lysate) (Klebsiella pneumoniae, UniProt Q9F663); assay: Inhibition of biapenem hydrolysis by bacterial lysate; format: biochemical
# T1 construct: Lysates were prepared from bacteria expressing various β-lactamases as a source of enzymes; endogenous in cells; host or cells: Klebsiella pneumoniae strains KP1004 and KP1008 (freeze-thaw lysate supernatants)
# T1 sequence (Q9F663 25-293 limits assumed): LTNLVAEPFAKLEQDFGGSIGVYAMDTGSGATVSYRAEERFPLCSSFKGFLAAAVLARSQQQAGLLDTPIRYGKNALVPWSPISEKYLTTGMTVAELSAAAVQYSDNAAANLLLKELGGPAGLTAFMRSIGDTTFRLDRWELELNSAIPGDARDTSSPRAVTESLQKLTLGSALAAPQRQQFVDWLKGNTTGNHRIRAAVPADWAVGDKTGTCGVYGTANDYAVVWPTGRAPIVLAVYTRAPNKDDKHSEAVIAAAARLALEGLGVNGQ
# Protocol: (§6) The activity of β-lactamase inhibitors to inhibit hydrolysis of biapenem was studied. Lysates were prepared from bacteria expressing various β-lactamases as a source of enzymes. Bacterial lysates were prepared as follows. A single colony from the fresh overnight plate was transferred to 5 mL of LB broth and grown to OD600=0.6-0.8. Next, this culture was transferred to 500 mL of LB and grown to OD600=0.7-0.9. Cells were pelleted by centrifugation at 5000 RPM (JA-14 rotor) for 15 minutes at room temperature. The pellet was resuspended in 10 mL of PBS. Five freeze-thaw cycles by putting cells at −20° C. and thawing them at the room temperature were next applied. After the last thaw step cells were spun down at 18K for 30 minutes and the supernatant was collected. This lysate was stored at −20° C.
# (§7) Next, the activity of bacterial lysates was optimized for biapenem cleavage as follows. 50 μl of buffer A (50 mM Sodium Phosphate pH=7; 0.5% glucose, 1 mM MgCl2) was added to each well of 96-well UV-transparent plate. 50 μl of lysate was titrated vertically in 96-well plate column to generate 2-fold lysate dilutions. 100 μl of buffer A was added to each well, placed in plate reader at 37° C. and incubated for 15 minutes. 50 μl of 50 μg/mL solutions of biapenem in buffer A (pre-incubated at 37° C. for 15 minutes) were added to each well. Hydrolysis of biapenem was measured at 296 nm. This experiment was used to determine the optimal lysate dilution which produced a linear curve of relative UV signal that decreased to approximately OD=0.3-0.5 over 1 hour.
# (§8) Finally, the potency of cyclic boronic acid derivative to inhibit the cleavage of biapenem cleavage by bacterial lysates was determined. 100 μl of buffer A (50 mM Sodium Phosphate pH=7; 0.5% glucose, 1 mM MgCl2) was added to each well of 96-well UV-transparent plate. 50 μl of 6× cyclic boronic acid derivative solution in buffer A was titrated vertically in 96-well plate column to generate 3-fold dilutions. 50 μl of diluted lysate in buffer A (optimal dilution is determined in experiment above) was added, and the plate was incubated in the plate reader at 37° C. for 15 minutes. 50 μl of 50 μg/mL solution of biapenem in buffer A (pre-incubated at 37° C. for 15 minutes) were next added to each well and hydrolysis of biapenem was recorded at 296 nm. EC50 of inhibition was determined by plotting the rate of biapenem cleavage vs. cyclic boronic acid derivative concentration.
# [21] = molecular target: T2, KPC-2 (Klebsiella pneumoniae KP1008 lysate) (Klebsiella pneumoniae, UniProt Q9F663); assay: as above; format: biochemical
# T2 construct: Lysates were prepared from bacteria expressing various β-lactamases as a source of enzymes; endogenous in cells; host or cells: Klebsiella pneumoniae strains KP1004 and KP1008 (freeze-thaw lysate supernatants)
# T2 sequence (Q9F663 25-293 limits assumed): as above
# Protocol: as §6, §7, §8
# [22] = molecular target: T3, KPC-3 (Escherichia coli EC1007 lysate) (Klebsiella pneumoniae, UniProt Q9F663, H272Y); assay: as above; format: biochemical; settings: EC1007 KPC-3 lysate; read-out: IC50 (μg/mL) of inhibition of biapenem hydrolysis
# T3 construct: Lysates were prepared from bacteria expressing various β-lactamases as a source of enzymes; endogenous in cells; host or cells: Escherichia coli strain EC1007 (freeze-thaw lysate supernatant)
# T3 sequence (Q9F663 25-293 H272Y): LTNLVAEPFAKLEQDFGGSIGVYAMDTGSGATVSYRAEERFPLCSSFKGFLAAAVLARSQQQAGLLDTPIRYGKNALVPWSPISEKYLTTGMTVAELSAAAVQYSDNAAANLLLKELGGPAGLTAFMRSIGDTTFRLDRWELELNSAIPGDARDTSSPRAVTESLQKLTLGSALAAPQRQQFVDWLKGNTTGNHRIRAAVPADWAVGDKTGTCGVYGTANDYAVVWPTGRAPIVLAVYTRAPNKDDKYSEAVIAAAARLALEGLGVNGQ
# Protocol: as §6, §7, §8
# [23] = molecular target: T4, SME-2 (Serratia marcescens SM1000 lysate) (Serratia marcescens, UniProt P52682); assay: as above; format: biochemical; settings: SM1000 SME-2 lysate; read-out: IC50 (μg/mL) of inhibition of biapenem hydrolysis
# T4 construct: Lysates were prepared from bacteria expressing various β-lactamases as a source of enzymes
# T4 sequence (P52682 28-294 limits assumed): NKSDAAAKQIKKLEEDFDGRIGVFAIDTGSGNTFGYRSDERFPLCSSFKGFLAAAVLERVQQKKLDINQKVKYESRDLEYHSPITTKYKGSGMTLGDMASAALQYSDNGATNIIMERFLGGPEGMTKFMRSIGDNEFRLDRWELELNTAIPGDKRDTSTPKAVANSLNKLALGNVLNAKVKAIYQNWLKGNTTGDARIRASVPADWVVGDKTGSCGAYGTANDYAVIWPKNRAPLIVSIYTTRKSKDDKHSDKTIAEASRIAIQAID
# Protocol: as §6, §7, §8
compound,measurement,setting,value
"C[C@@H](O)[C@H]1C(=O)N2C(C(=O)[O-])=C(SC3Cn4cnc[n+]4C3)[C@H](C)[C@H]12 (some centres unmarked) [Biapenem, reference compound]",MIC,"KP1004 KPC-2; Klebsiella pneumoniae, KP1004 KPC-2",> 8 µg/mL
same,MIC,"KP1008 KPC-2; Klebsiella pneumoniae, KP1008 KPC-2",8 µg/mL
same,MIC,"EC1007 KPC-3; Escherichia coli, EC1007 KPC-3",4 µg/mL
same,MIC,"ECL1004 NMC-A; Enterobacter cloacae, ECL1004 NMC-A",8 µg/mL
same,MIC,[1],> 4 µg/mL
same,MIC,[2],0.5 to 4 µg/mL
same,MIC,[3],> 4 µg/mL
same,MIC,[4],0.5 to 4 µg/mL
same,MIC,[5],> 4 µg/mL
same,MIC,[6],> 4 µg/mL
same,MIC,[7],> 4 µg/mL
same,MIC,[8],> 4 µg/mL
same,MIC,[9],0.5 to 4 µg/mL
same,MIC,[10],> 4 µg/mL
same,MIC,[11],> 4 µg/mL
same,MIC,[12],> 4 µg/mL
same,MIC,[13],> 4 µg/mL
same,MIC,[14],0.125 µg/mL
same,MIC,[15],8 µg/mL
same,MIC,[16],16 µg/mL
"O=C(O)CC1CC[C@H](NC(=O)Cc2ccccc2)B(O)O1 (stereo partly drawn) [Compound 2, 2-((3R)-2-hydroxy-3-(2-phenylacetamido)-1,2-oxaborinan-6-yl)acetic acid]",MPC8,[17],X (X = MPC8 of less than 0.16 μg/mL.)
"CC(=O)N[C@H]1CCC(CC(=O)O)OB1O (stereo partly drawn) [Compound 3, 2-((3R)-3-acetamido-2-hydroxy-1,2-oxaborinan-6-yl)acetic acid]",MPC8,[18],Z (Z = MPC8 of greater than 1 μg/mL.)
same,MPC8,[19],Z (Z = MPC8 of greater than 1 μg/mL.)
same,MPC8,[17],X (X = MPC8 of less than 0.16 μg/mL.)
same,IC50,[20],> 4.65 µM
same,IC50,[21],> 4.65 µM
same,IC50,[22],0.465 to 4.65 µM
same,IC50,[23],> 4.65 µM
same,BPM MPC1 KP1004 KPC-2,KP1004 KPC-2; biapenem 1 μg/mL,X (X = MPC1 of less than 1 μg/mL.)
same,BPM MPC1 KP1008 KPC-2,KP1008 KPC-2; biapenem 1 μg/mL,X (X = MPC1 of less than 1 μg/mL.)
same,BPM MPC1 EC1007 KPC-3,EC1007 KPC-3; biapenem 1 μg/mL,X (X = MPC1 of less than 1 μg/mL.)
same,BPM MPC1 ECL1004 NMC-A,ECL1004 NMC-A; biapenem 1 μg/mL,Y (Y = MPC1 of 1 μg/mL to 5 μg/mL.)
